Reference: patent publication US20250034170A1, “SMALL MOLECULE MODULATORS OF GLUCOCEREBROSIDASE ACTIVITY AND USES THEREOF” (Vanqua Bio, Inc., priority 2021, published 2025)

These molecules were tested against T1, GCase (Homo sapiens, UniProt P04062) (assay: activation of GCase in a live cell PFB assay in HELA cells). Conditions: EC50 given as range classes.
T1 construct: endogenous in cells; host or cells: HeLa cells
T1 sequence (P04062 40-536): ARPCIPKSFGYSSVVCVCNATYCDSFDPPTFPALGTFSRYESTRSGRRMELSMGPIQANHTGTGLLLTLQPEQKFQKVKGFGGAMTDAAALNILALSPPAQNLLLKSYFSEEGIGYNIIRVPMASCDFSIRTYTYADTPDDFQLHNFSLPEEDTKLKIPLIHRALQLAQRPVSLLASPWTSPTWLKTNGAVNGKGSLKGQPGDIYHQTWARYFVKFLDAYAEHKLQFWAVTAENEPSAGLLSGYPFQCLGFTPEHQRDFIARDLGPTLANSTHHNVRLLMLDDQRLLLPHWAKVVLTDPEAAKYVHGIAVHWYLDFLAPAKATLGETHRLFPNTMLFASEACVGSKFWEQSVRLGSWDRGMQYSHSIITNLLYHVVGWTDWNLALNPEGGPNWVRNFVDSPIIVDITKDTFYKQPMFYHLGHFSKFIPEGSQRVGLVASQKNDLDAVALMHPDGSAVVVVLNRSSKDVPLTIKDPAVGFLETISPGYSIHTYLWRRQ
Type: cell-based
Protocol: Exemplary compounds were evaluated for activation of GCase in a live cell PFB assay in HELA cells (essentially as described in Ysselstein et al., “LRRK2 kinase activity regulates lysosomal glucocerebrosidase in neurons derived from Parkinson's disease patients” Nature Communications (2019) 10:5570). […] EC50 ranges: A: <10 μM; B: >10-50 μM; C: >50-100 μM; D: >100 μM.

Structure (SMILES)	EC50 [µM]
CCCc1cnc(C(F)(F)F)cc1N1CC2(CCN(c3cnc4cnn(CC(F)F)c4n3)C2)C1 [Cmpd 1031]	< 10
FC(F)Cn1ncc2ncc(N3CCCC4(CCN(c5ccc(C(F)(F)F)cn5)CC4)C3)nc21 [Cmpd 218]	10 to 50
FC(F)Cn1ncc2ncc(N3CCC4(CN(c5ccnc(OCC(F)(F)F)c5)C4)C3)nc21 [Cmpd 412]	10 to 50
Cc1nc(N2CC3(CCN(c4ccc5cnn(CC(F)F)c5n4)CC3)C2)cc(C(F)(F)F)n1 [Cmpd 623]	< 10
FC(F)Cn1ncc2ncc(N3CCCC4(CCN(c5ccnc(C(F)(F)F)c5)CC4)C3)nc21 [Cmpd 226]	> 100
COc1ccc(C(F)(F)F)c(N2CCC3(CCN(c4cnc5cnn(CC(F)F)c5n4)CC3)C2=O)n1 [Cmpd 784]	< 10
FC(F)Cn1ncc2ncc(N3CCC4(CN(c5cc(C(F)(F)F)ccn5)C4)C3)nc21 [Compound 187, 6-[1-(2,2-difluoroethyl)-1H-pyrazolo[3,4-b]pyrazin-6-yl]-2-[4-(trifluoromethyl)pyridin-2-yl]-2,6-diazaspiro[3.4]octane]	10 to 50
Cc1nc(N2CC3(CCN(c4cnc5c(C)nn(CC(F)(F)F)c5n4)C3)C2)cc(C(F)(F)F)n1 [Cmpd 608]	50 to 100
Cc1nc(N2CC3(CCN(c4cnc5cnn(CC(F)F)c5n4)C3)C2)ncc1Cl [Cmpd 402]	> 100

Same assay, conditions: activation of GCase, EC50 ranges

Structure (SMILES)	EC50 [µM]
O=C1N(c2ncc(C(F)(F)F)cc2Cl)CCC12CCN(c1cnc3cnn(CC(F)F)c3n1)CC2 [Cmpd 776]	10 to 50
FC(F)Cn1ncc2cnc(N3CCC4(CN(c5ccnc(C(F)(F)F)c5)C4)C3)nc21 [Cmpd 295]	10 to 50
Cc1nc(N2CCC3(CCN(c4cnc5cnn(CC(F)F)c5n4)C3=O)C2)cc(C(F)(F)F)n1 (stereo not shown) [Cmpd 523]	< 10
FC(F)Cn1ncc2ncc(N3CCC4(CCC(Oc5cc(C(F)(F)F)ccn5)C4)CC3)nc21 (stereo not shown) [Cmpd 692]	10 to 50
O=C1N(c2ccc(C(F)(F)F)nc2)CCC12CCN(c1cnc3cnn(C4COC4)c3n1)CC2 [Cmpd 886]	10 to 50
Cc1nc(N2CCC3(CCN(c4nc5c(cnn5CC(F)F)c(=O)n4C)CC3)C2)cc(C(F)(F)F)n1 [Cmpd 1053]	< 10
O=C1CC2(CCN(c3cnc4cnn(CC(F)F)c4n3)CC2)CN1Cc1ccc(F)cc1 [Cmpd 444]	< 10
O=C1N(c2cc(C(F)(F)F)ccn2)CCC12CCN(c1cncc(-n3cccn3)n1)CC2 [Cmpd 241]	10 to 50
FC(F)Cn1ncc2ncc(N3CCC4(CC3)CC(COc3cnccc3C(F)(F)F)C4)nc21 [Cmpd 699]	< 10
COc1nn(C2COC2)c2nc(N3CCC4(CN(c5ccnc(C(F)(F)F)c5)C4)C3)cnc12 [Cmpd 943]	< 10
Cc1cc(N2CC3(CCN(c4ncc5c(C)nn(CC(C)(F)F)c5n4)C3)C2)nc(C(F)(F)F)n1 [Cmpd 1130]	< 10
O=C1C[C@@]2(CC3CCC2CN3c2cnc3cnn(CC(F)F)c3n2)CN1c1ccc(C(F)(F)F)cn1 (stereo partly shown) [Cmpd 863]	< 10
Fc1cc(C(F)(F)F)cnc1N1CCC2(CCN(c3cnc4cnn(CC(F)F)c4n3)CC2)C1 [Cmpd 743]	10 to 50
O=C1CC2(CCN(c3cncc(C(F)(F)F)c3)CC2)CN1c1cnc2cnn(CC(F)F)c2n1 [Compound 111, 2-[1-(2,2-difluoroethyl)-1H-pyrazolo[3,4-b]pyrazin-6-yl]-8-[5-(trifluoromethyl)pyridin-3-yl]-2,8-diazaspiro[4.5]decan-3-one]	10 to 50
FC(F)Cn1ncc2ncc(N3CCCC4(C3)CN(c3cccnc3C(F)(F)F)C4)nc21 [Compound 26, 6-[1-(2,2-difluoroethyl)-1H-pyrazolo[3,4-b]pyrazin-6-yl]-2-[2-(trifluoromethyl)pyridin-3-yl]-2,6-diazaspiro[3.5]nonane]	10 to 50
FC(F)Cn1ncc2ncc(N3CCC4(CCC(Oc5ccc(C(F)(F)F)nc5)C4)CC3)nc21 (stereo not shown) [Cmpd 693]	< 10
FC(F)Cn1ncc2ncc(N3CCC4(CN(c5ccnc(C(F)(F)F)n5)C4)C3)nc21 [Cmpd 318]	10 to 50
Cc1nc(N2CC3(CCN(c4cnc5cnn(CC(F)F)c5n4)C3)C2)c(F)c(C(F)(F)F)n1 [Cmpd 1137]	50 to 100
O=C1N(c2cc(C(F)(F)F)ccn2)C(=O)C2(CCN(c3cnc4cnn(CC(F)F)c4n3)CC2)N1Cc1cc(F)cc(F)c1 [Cmpd 716]	< 10

Structure (SMILES)	EC50 [µM]
Cc1nc(N2CC3(CCN(c4cncc(-c5nncs5)n4)C3)C2)cc(C(F)(F)F)n1 [Cmpd 505]	> 100
Cc1ncc(N2CC3(CCN(c4cnc5cnn(CC(F)F)c5n4)CC3)C2)c(C(F)(F)F)n1 [Cmpd 561]	10 to 50
COc1nc(N2CCC3(CC2)CCN(c2cc(C(F)(F)F)ccn2)C3=O)nc2c1cnn2CC(F)F [Cmpd 303]	< 10
Fc1ccc(F)c(OC2CC3(CCCN(c4cnc5cnn(CC(F)F)c5n4)C3)C2)c1 (stereo not shown) [Compound 24, 6-[1-(2,2-difluoroethyl)-1H-pyrazolo[3,4-b]pyrazin-6-yl]-2-(2,5-difluorophenoxy)-6-azaspiro[3.5]nonane]	10 to 50
Cc1nc(C(F)(F)F)nc(N2CC3(CCN(c4cnc5cnn(CC(F)F)c5n4)C3)C2)c1F [Cmpd 1138]	10 to 50
Cn1c(N2CCC3(CCN(c4ccnc(C(F)(F)F)c4)C3)CC2)nc2c(cnn2C2COC2)c1=O [Cmpd 1059]	< 10
CCC1N(c2ccc(C(F)(F)F)cn2)C(=O)CC12CCN(c1cnc3cnn(CC(F)F)c3n1)CC2 (stereo not shown) [Cmpd 851]	< 10
FC(F)(F)c1ccc(N2CCC3(CCN(c4cncc(C(F)(F)F)n4)CC3)C2)cn1 [Cmpd 255]	< 10
CCn1c(-c2cncc(F)c2)nc2ncc(N3CCC4(CN(c5ccnc(C(F)(F)F)c5)C4)C3)nc21 [Cmpd 1044]	< 10
Cc1cc(N2CC3(CCN(c4ncc5cnn(CC(F)(F)F)c5n4)C3)C2)nc(C(F)(F)F)n1 [Cmpd 467]	< 10
FC(F)Cn1ncc2ncc(N3CCC4(C3)CN(c3nccc(C(F)(F)F)n3)C4)nc21 [Cmpd 299]	10 to 50
FC(F)Cn1ncc2ncc(N3CC4(CCCN(c5ccc(C(F)(F)F)cn5)C4)C3)nc21 [Compound 14, 2-[1-(2,2-difluoroethyl)-1H-pyrazolo[3,4-b]pyrazin-6-yl]-6-[5-(trifluoromethyl)pyridin-2-yl]-2,6-diazaspiro[3.5]nonane]	10 to 50
FC(F)(F)c1ccc(N2CCC3(CCN(c4cncc(-n5ccnc5)n4)CC3)C2)cn1 [Cmpd 238]	10 to 50
FC(F)Cn1ncc2ncc(N3CCC4(CC3)CN(c3ccc(C(F)(F)F)nc3)C4)nc21 [Compound 66, 7-[1-(2,2-difluoroethyl)-1H-pyrazolo[3,4-b]pyrazin-6-yl]-2-[6-(trifluoromethyl)pyridin-3-yl]-2,7-diazaspiro[3.5]nonane]	< 10
Cc1nccc(N2CCC3(CCN(c4cnc5cnn(CC(F)F)c5n4)CC3)C2)n1 [Cmpd 758]	< 10
O=C1CC2(CCCN(c3cnc4cnn(CC(F)F)c4n3)C2)CN1c1cc(C(F)(F)F)ccn1 (stereo not shown) [Compound 97, 7-[1-(2,2-difluoroethyl)-1H-pyrazolo[3,4-b]pyrazin-6-yl]-2-[4-(trifluoromethyl)pyridin-2-yl]-2,7-diazaspiro[4.5]decan-3-one]	50 to 100
CC1CN(c2cnc3cnn(CC(F)F)c3n2)CC[C@@]12CCN(c1cccc(C(F)(F)F)n1)C2=O (stereo partly shown) [Cmpd 670]	10 to 50
O=C1CC2(CCN(c3cnc4cnn(C5COC5)c4n3)CC2)CN1c1cnc(C(F)(F)F)cn1 [Cmpd 862]	> 100
